Source: PubChem BioAssay AID1963870 (Molecular Pharmacology Branch, DTP, NCI, 2024)
pIC50: −log10 of the molar value.

Tested on: 292921-168-R-J2-PDC KRAS tumor spheroid viability
Assay: Anticancer human tumor 292921-168-R-J2-PDC patient-derived pancreatic carcinoma cell line growth inhibition [KRAS2]
Details: spheroids with HUVEC and MSC; for pIC50: curve of first compound; for viability, T/C: stronger effect = lower value
Method in brief: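 KRAS-mutant tumor cells were grown as spheroids with HUVEC endothelial cells and human MSCs as stroma. Targeted agents were tested alone and with KRAS pathway inhibitors. Doses started at or near clinical Cmax, or 10 microM, descending half-log.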

[1] = second compound 0.1 µM, first compound 0.0316 µM
[2] = second compound 0.1 µM, first compound 0.1 µM
[3] = second compound 0.1 µM, first compound 0.316 µM
[4] = second compound 0.1 µM, first compound 1 µM
[5] = second compound 0.1 µM, first compound 3.16 µM
[6] = second compound 0.1 µM, first compound 10 µM
[7] = second compound 0.316 µM, first compound 0.0316 µM
[8] = second compound 0.316 µM, first compound 0.1 µM
[9] = second compound 0.316 µM, first compound 0.316 µM
[10] = second compound 0.316 µM, first compound 1 µM
[11] = second compound 0.316 µM, first compound 3.16 µM
[12] = second compound 0.316 µM, first compound 10 µM
[13] = second compound 1 µM, first compound 0.0316 µM
[14] = second compound 1 µM, first compound 0.1 µM
[15] = second compound 1 µM, first compound 0.316 µM
[16] = second compound 1 µM, first compound 1 µM
[17] = second compound 1 µM, first compound 3.16 µM
[18] = second compound 1 µM, first compound 10 µM
[19] = second compound 3.16 µM, first compound 0.0316 µM
[20] = second compound 3.16 µM, first compound 0.1 µM
[21] = second compound 3.16 µM, first compound 0.316 µM
[22] = second compound 3.16 µM, first compound 1 µM
[23] = second compound 3.16 µM, first compound 3.16 µM
[24] = second compound 3.16 µM, first compound 10 µM
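Also: drug exposure lasted seven days after spheroids formed for three days.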
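For viability, T/C in this document: percent of DMSO vehicle control viability which is 100%.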

| SMILES | pIC50 (second compound 0.1 µM) | pIC50 (second compound 0.316 µM) | pIC50 (second compound 1 µM) | pIC50 (second compound 3.16 µM) | viability, T/C [1] [%] | viability, T/C [2] [%] | viability, T/C [3] [%] | viability, T/C [4] [%] | viability, T/C [5] [%] | viability, T/C [6] [%] | viability, T/C [7] [%] | viability, T/C [8] [%] | viability, T/C [9] [%] | viability, T/C [10] [%] | viability, T/C [11] [%] | viability, T/C [12] [%] | viability, T/C [13] [%] | viability, T/C [14] [%] | viability, T/C [15] [%] | viability, T/C [16] [%] | other results |
| --- | --- | --- | --- | --- | --- | --- | --- | --- | --- | --- | --- | --- | --- | --- | --- | --- | --- | --- | --- | --- | --- |
| CCNC(=O)CC1N=C(c2ccc(Cl)cc2)c2cc(OC)ccc2-n2c(C)nnc21 (stereo not given) + C=CC(=O)N1CCN(c2nc(OCC3CCCN3C)nc3c2CCN(c2cccc4cccc(C)c24)C3)CC1CC#N | 5.91 | 6.19 | > 7.50 | > 7.50 | 94 | 90.2 | 59.1 | 53.7 | 48 | 34.3 | 106 | 92.2 | 59.2 | 45.1 | 34.2 | 29.2 | 42.4 | 33 | 26.1 | 18.4 | pIC50 (second compound 0.0316 µM): < 5.00; viability, T/C (second compound 0.0316 µM, first compound 0.0316 µM): 104%; viability, T/C (second compound 0.0316 µM, first compound 0.1 µM): 99.5%; viability, T/C (second compound 0.0316 µM, first compound 0.316 µM): 69.9%; viability, T/C (second compound 0.0316 µM, first compound 1 µM): 63.6%; viability, T/C (second compound 0.0316 µM, first compound 3.16 µM): 53.9%; viability, T/C (second compound 0.0316 µM, first compound 10 µM): 49.2%; viability, T/C [17]: 13.7%; viability, T/C [18]: 8.19%; viability, T/C [19]: 0.21%; viability, T/C [20]: 0.11%; viability, T/C [21]: 0.1%; viability, T/C [22]: 0.1%; viability, T/C [23]: 0.1%; viability, T/C [24]: 0.26% |
| CC1(C)CCC(CN2CCN(c3ccc(C(=O)NS(=O)(=O)c4ccc(NCC5CCOCC5)c([N+](=O)[O-])c4)c(Oc4cnc5[nH]ccc5c4)c3)CC2)=C(c2ccc(Cl)cc2)C1 + CC1OCC2(CCN(c3cnc(Sc4ccnc(N)c4Cl)c(N)n3)CC2)C1N | 5.79 | 5.84 | > 7.50 | > 7.50 | 77.7 | 81.6 | 71.8 | 69.8 | 21.9 | 11.7 | 59.7 | 65.9 | 64.2 | 58.9 | 29.6 | 7.43 | 46.5 | 51.4 | 46.1 | 42.9 | pIC50 (second compound 10 µM): > 7.50; viability, T/C [17]: 17.8%; viability, T/C [18]: 7.41%; viability, T/C [19]: 38.8%; viability, T/C [20]: 40.2%; viability, T/C [21]: 37.6%; viability, T/C [22]: 39%; viability, T/C [23]: 14.1%; viability, T/C [24]: 7.38%; viability, T/C (second compound 10 µM, first compound 0.0316 µM): 33.3%; viability, T/C (second compound 10 µM, first compound 0.1 µM): 32.8%; viability, T/C (second compound 10 µM, first compound 0.316 µM): 33.2%; viability, T/C (second compound 10 µM, first compound 1 µM): 34.7%; viability, T/C (second compound 10 µM, first compound 3.16 µM): 13.1%; viability, T/C (second compound 10 µM, first compound 10 µM): 1.65% |
